Experimental findings from ChEMBL document CHEMBL3045767, “Synthesis of novel 2-[4-(4-substitutedbenzamido/phenylacetamido)phenyl]benzothiazoles as antimicrobial agents” (2012) are described below.

Assay type in all cases: functional
Test [1] relates to Candida albicans. Put plainly: Antifungal activity against Candida albicans ATCC 10231 after 48 hr by CLSI broth microdilution method. The settings on record: ATCC 10231, 48 h.
In test [2] the test system is Staphylococcus aureus. Put plainly: Antibacterial activity against methicillin-resistant Staphylococcus aureus after 24 hr by CLSI broth microdilution method. (Dilution methods test growth across graded concentrations, often in twofold steps.)
In test [3] the test system is Bacillus subtilis. Kind of test: Antibacterial activity against ceftriaxon-resistant Bacillus subtilis after 24 hr by CLSI broth microdilution method.
The test system of test [4] is Staphylococcus aureus. Put plainly: Antibacterial activity against Staphylococcus aureus ATCC 25923 after 24 hr by CLSI broth microdilution method.
Test [5] has as its system Bacillus subtilis. Kind of test: Antibacterial activity against Bacillus subtilis ATCC 6633 after 24 hr by CLSI broth microdilution method.
The test system of test [6] is Escherichia coli. Kind of test: Antibacterial activity against Escherichia coli producing extended spectrum beta lactamase enzyme after 24 hr by CLSI broth microdilution method.
Test [7] relates to Pseudomonas aeruginosa. Kind of test: Antibacterial activity against gentamicin-resistant Pseudomonas aeruginosa after 24 hr by CLSI broth microdilution method.
The test system of test [8] is Escherichia coli. Put plainly: Antibacterial activity against Escherichia coli ATCC 25922 after 24 hr by CLSI broth microdilution method.
The subject of test [9] is Pseudomonas aeruginosa. Put plainly: Antibacterial activity against Pseudomonas aeruginosa ATCC […] after 24 hr by CLSI broth microdilution method.
In test [10] the test system is Klebsiella pneumoniae. Kind of test: Antibacterial activity against Klebsiella pneumoniae RSKK 574 after 24 hr by CLSI broth microdilution method.
Test [11] has as its system Klebsiella pneumoniae. Put plainly: Antibacterial activity against Klebsiella pneumoniae producing extended spectrum beta lactamase enzyme after 24 hr by CLSI broth microdilution method.
Test [12] relates to Candida albicans. Put plainly: Antifungal activity against Candida albicans.
Test [13] relates to Staphylococcus aureus. Kind of test: Antibacterial activity against Staphylococcus aureus.

The term MIC denotes the lowest concentration found to suppress growth. A high value points to weaker potency.

In brackets after ≈: the same amount, converted by molar mass.

Regarding `O=C(Nc1ccc(-c2nc3ccccc3s2)cc1)c1ccc(F)cc1`, the minimum inhibitory concentration (MIC) against Candida albicans [1] came to 25 µg/mL (≈ 71.8 µM); against Staphylococcus aureus [2], 25 µg/mL (≈ 71.8 µM); against Bacillus subtilis [3], 50 µg/mL (≈ 144 µM); against Staphylococcus aureus [4] (ATCC 25923, 24 h), 50 µg/mL (≈ 144 µM); against Bacillus subtilis [5] (ATCC 6633, 24 h), 50 µg/mL (≈ 144 µM); with Escherichia coli [6], 50 µg/mL (≈ 144 µM). For the same compound, the minimal inhibitory concentration (MIC) in the test on Pseudomonas aeruginosa [7] is 25 µg/mL (≈ 71.8 µM); in the test on Escherichia coli [8] (ATCC 25922, 24 h), 50 µg/mL (≈ 144 µM); with Pseudomonas aeruginosa [9] (ATCC 25853, 24 h) it was 25 µg/mL (≈ 71.8 µM); in the test on Klebsiella pneumoniae [10] (RSKK 574, 24 h), 25 µg/mL (≈ 71.8 µM); against Klebsiella pneumoniae [11] it was 50 µg/mL (≈ 144 µM).
Take `Clc1ccc(OCc2nc3ccccc3s2)cc1`: the minimal inhibitory concentration (MIC) against Candida albicans [12] worked out at 3.12 µg/mL (≈ 11.3 µM).
In turn, `OC(Cn1cncn1)(Cn1cncn1)c1ccc(F)cc1F` [FLUCONAZOLE] showed an MIC against Candida albicans [1] of 0.78 µg/mL (≈ 2.55 µM).
For the compound `CC1COc2c(N3CCN(C)CC3)c(F)cc3c(=O)c(C(=O)O)cn1c23` (configuration not stated) [OFLOXACIN], the minimal inhibitory concentration (MIC) is 1.56 µg/mL (≈ 4.32 µM) against Staphylococcus aureus [2]; 3.12 µg/mL (≈ 8.65 µM) in the test on Bacillus subtilis [3]; 0.19 µg/mL (≈ 0.526 µM) against Staphylococcus aureus [4] (ATCC 25923, 24 h); 0.19 µg/mL (≈ 0.526 µM) with Bacillus subtilis [5] (ATCC 6633, 24 h); 6.25 µg/mL (≈ 17.3 µM) against Escherichia coli [6]; 50 µg/mL (≈ 138 µM) against Pseudomonas aeruginosa [7]. Further, the MIC with Escherichia coli [8] (ATCC 25922, 24 h) came out at 0.19 µg/mL (≈ 0.526 µM); in the test on Pseudomonas aeruginosa [9] (ATCC 25853, 24 h), 6.25 µg/mL (≈ 17.3 µM); in the test on Klebsiella pneumoniae [10] (RSKK 574, 24 h), 0.19 µg/mL (≈ 0.526 µM); in the test on Klebsiella pneumoniae [11] it was 3.12 µg/mL (≈ 8.65 µM).
For `C[C@@H]1[C@H](O)[C@@H](C)/C=C/C=C/C=C/C=C/C=C/C=C/C=C/[C@H](O[C@@H]2O[C@H](C)[C@@H](O)[C@H](N)[C@@H]2O)C[C@@H]2O[C@](O)(C[C@@H](O)C[C@@H](O)[C@H](O)CC[C@@H](O)C[C@@H](O)CC(=O)O[C@H]1C)C[C@H](O)[C@H]2C(=O)O` [AMPHOTERICIN B], inhibition of growth with Candida albicans [1] (MIC) required 0.78 µg/mL (≈ 0.844 µM).
As to `CC1(C)S[C@@H]2[C@H](NC(=O)[C@H](N)c3ccccc3)C(=O)N2[C@H]1C(=O)O.O.O.O` [AMPICILLIN TRIHYDRATE], the MIC against Bacillus subtilis [3] turned out to be 0.78 µg/mL; in the test on Staphylococcus aureus [4] (ATCC 25923, 24 h) it was 0.78 µg/mL; in the test on Bacillus subtilis [5] (ATCC 6633, 24 h) it was 0.78 µg/mL; in the test on Escherichia coli [6] it was 400 µg/mL; against Escherichia coli [8] (ATCC 25922, 24 h), 3.12 µg/mL.
As to GENTAMICIN SULFATE, the MIC stood at 6.25 µg/mL in the test with Staphylococcus aureus [2]; 0.19 µg/mL against Bacillus subtilis [3]; 0.78 µg/mL with Staphylococcus aureus [4]; 0.39 µg/mL against Bacillus subtilis [5]; 12.5 µg/mL with Escherichia coli [6]; 50 µg/mL in the test with Pseudomonas aeruginosa [7]. Further, the minimum inhibitory concentration (MIC) in the test with Escherichia coli [8] was determined as 0.78 µg/mL; against Pseudomonas aeruginosa [9], 1.56 µg/mL; in the test on Klebsiella pneumoniae [10], 0.39 µg/mL; in the test on Klebsiella pneumoniae [11], 6.25 µg/mL.
Take `CC(C)(C)c1ccc(C(=O)Nc2ccc(-c3nc4ccccc4s3)cc2)cc1`: the minimal inhibitory concentration (MIC) turned out to be 12.5 µg/mL (≈ 32.3 µM) with Candida albicans [1]; 12.5 µg/mL (≈ 32.3 µM) with Staphylococcus aureus [2]; 100 µg/mL (≈ 259 µM) in the test with Bacillus subtilis [3]; 50 µg/mL (≈ 129 µM) in the test with Staphylococcus aureus [4] (ATCC 25923, 24 h); 50 µg/mL (≈ 129 µM) against Bacillus subtilis [5] (ATCC 6633, 24 h); 50 µg/mL (≈ 129 µM) against Escherichia coli [6]. For the same compound, the minimal inhibitory concentration (MIC) is 25 µg/mL (≈ 64.7 µM) in the test on Pseudomonas aeruginosa [7]; 25 µg/mL (≈ 64.7 µM) against Escherichia coli [8] (ATCC 25922, 24 h); 25 µg/mL (≈ 64.7 µM) against Pseudomonas aeruginosa [9] (ATCC 25853, 24 h); 25 µg/mL (≈ 64.7 µM) in the test on Klebsiella pneumoniae [10] (RSKK 574, 24 h); 50 µg/mL (≈ 129 µM) in the test on Klebsiella pneumoniae [11].
Turning to `O=C(Cc1ccc(Br)cc1)Nc1ccc(-c2nc3ccccc3s2)cc1`, the MIC in the test with Candida albicans [1] was 12.5 µg/mL (≈ 29.5 µM); in the test with Staphylococcus aureus [2] it was 25 µg/mL (≈ 59.1 µM); in the test on Bacillus subtilis [3], 50 µg/mL (≈ 118 µM); in the test on Staphylococcus aureus [4] (ATCC 25923, 24 h), 50 µg/mL (≈ 118 µM); with Bacillus subtilis [5] (ATCC 6633, 24 h), 50 µg/mL (≈ 118 µM); against Escherichia coli [6] it was 50 µg/mL (≈ 118 µM). The minimum inhibitory concentration (MIC) with Pseudomonas aeruginosa [7] worked out at 25 µg/mL (≈ 59.1 µM); against Escherichia coli [8] (ATCC 25922, 24 h), 25 µg/mL (≈ 59.1 µM); against Pseudomonas aeruginosa [9] (ATCC 25853, 24 h), 12.5 µg/mL (≈ 29.5 µM); against Klebsiella pneumoniae [10] (RSKK 574, 24 h) it was 50 µg/mL (≈ 118 µM); with Klebsiella pneumoniae [11], 50 µg/mL (≈ 118 µM).
Consider `CO[C@H]1/C=C/O[C@@]2(C)Oc3c(C)c(O)c4c(O)c(c(/C=N/N5CCN(C)CC5)c(O)c4c3C2=O)NC(=O)/C(C)=C\C=C\[C@H](C)[C@H](O)[C@@H](C)[C@@H](O)[C@@H](C)[C@H](OC(C)=O)[C@@H]1C` [RIFAMPIN], for which the minimum inhibitory concentration (MIC) came out at 1.56 µg/mL (≈ 1.9 µM) in the test with Staphylococcus aureus [2]; 3.12 µg/mL (≈ 3.8 µM) with Bacillus subtilis [3]; 0.0225 µg/mL (≈ 0.0273 µM) in the test on Staphylococcus aureus [4] (ATCC 25923, 24 h); 0.19 µg/mL (≈ 0.231 µM) with Bacillus subtilis [5] (ATCC 6633, 24 h).
On to `c1ccc(OCc2nc3ccccc3s2)cc1` [2-(PHENOXYMETHYL)BENZOTHIAZOLE], for which the minimum inhibitory concentration (MIC) in the test on Staphylococcus aureus [13] and with Candida albicans [12] was 3.12 µg/mL (≈ 12.9 µM) in each case.
